# Read-outs that look alike come from different tables or passages of the source.
# Assays:
# [1] = tested on: anesthetized male CD rats; assay: Rat Cardiovascular/Respiratory (CV/R) assay; assay type: in vivo; parameters: ∆ QRS Interval: unit not given here; details: rat, IV infusion
# Procedure: Male CD Rats were anesthetized with ketamine:xylazine (85 mg/kg:5 mg/kg, im, to effect). The left femoral artery and vein were cannulated for the measurement of blood pressure and the administration of test agent, respectively. The right femoral vein was cannulated for maintenance anesthetic infusion (ketamine:xylazine ~35 mg/kg/hr:1.5 mg/kg/hr, iv, to effect). Needle electrodes were placed subcutaneously at the right axillary and left inguinal areas to record lead II ECGs. When ECG intervals were required to determine effect on cardiac conduction a pacing/recording electrode catheter was advanced through the right jugular vein to pace the heart. ECG intervals were then measured at a fixed cardiac rate of 400 beats/minute to remove any variability of intrinsic heart rate on these parameters.
# To determine the test agent-dependent effect on respiratory rate, a tracheotomy was also performed using a short length of polyethylene tubing containing a thermistor (AD Instruments). The change in temperature detected by the thermistor was used to calculate respiratory rate.
# (§1) For in vivo CVR and phrenic nerve activity studies, all raw signals were amplified via general purposed biological amplifier (filter settings DC – 3-5 KhZ) then digitized, calibrated and collected at a minimum of 500 Hz (1000 Hz for ECG and 2000 Hz for cardiac electrograms, and 10 KHz for phrenic nerve activity) using Notocord-HEM data acquisition and analysis software. The raw signal was filtered following acquisition with a bandpass filter set to 200–800 Hz). Vehicle (100% dimethylformamdide, DMF) or compound formulated in the vehicle was administered as a 30-minute IV infusion at 0.0167 μL/g body weight/min. Doses were selected to achieve unbound plasma concentrations in range of measured Nav1.6 IC50 values when infused at 0.0167uL/g body weight/min based on measured rat clearance, plasma protein binding and Nav1.6 IC50. Exposure in rats was determined in separate pharmacokinetics experiments where compounds were administered via IV dosing.
# [2] = tested on: rat diaphragm with the phrenic nerve attached; assay: Rat hemisected diaphragm (HMD) assay, ex vivo
# Description: Wistar derived male or female rats weighing 450 ± 50 g were euthanized by CO2 overexposure. The diaphragm with the phrenic nerve attached was removed and placed into a tissue recording chamber containing Krebs solution pH 7.4; (composition in g/L: NaCl 6.89, KCl 0.35, CaCl2 0.277, KH2PO4 0.163, MgSO4 · 7H2O 0.296, NaHCO3 2.1 and glucose 1.8). A piece of cotton was attached to the top of the phrenic nerve over the jaw electrodes. A second piece of cotton was attached to the tip of the tendinous tissue at the apex of the diaphragm preparation for attachment to an isometric transducer under 1 g tension. The rib of the diaphragm preparation was secured to the bottom of the jaw electrodes. […] The recording chamber was placed into a water bath kept at a temperature of 32°C by means of a suitable thermoregulator consisting of a thermostat and heating elements in addition to a water circulator.
# The isometric transducer was connected to an amplifier and the tissue response was recorded on a two-pen recorder set at 1 volt. Field stimulation [S48 Stimulator (GRASS) set at 0.2 Hz (12 pulses per minute), 0.5 ms pulse duration at 70% of maximum voltage (about 3 to 5 volts)] delivered to two circle platinum electrodes (0.2 cm in diameter) was applied for transmural tissue stimulation. Each tissue preparation was washed three times in Krebs solution every 15 minutes for a 60 minute equilibration period and permitted to develop contractions. D-Tubocurarine (300 µM dissolved in 0.1 mL distilled water for a final 3 µM bath concentration) was added to establish an isometrically recorded control relaxation response ranging from one to two centimeters and corresponding to 60–70% of maximal relaxation. […] The tissue was then washed periodically until the contraction returns to the baseline value.
# Sixty minutes later, the test compound was added (e.g. 30 mM in 0.01 mL vehicle of 100% DMSO, for final concentration of 30 µM test compound and 0.1% DMSO). A test compound recorded relaxation response of 50% or more (≥50%) within 5 minutes, relative to the 3 µM d-Tubocurarine control response, indicates neuromuscular blocking activity.
# phrenic nerve = assay: Rat phrenic nerve firing assay; details: rat in vivo, measured at 30 minutes
# Procedure: To determine direct effects on phrenic nerve activity, male CD rats were anesthetized and instrumented as described above for the CV/R assay. In addition, an incision was made in the ventral neck area and the right phrenic nerve identified anatomically and isolated via blunt dissection. The phrenic nerve was placed over a high impedance bipolar hook electrode and the nerve covered with mineral oil to prevent desiccation. Animals were mechanically ventilated via a tracheotomy (~10 mL/kg, 40–70 breaths/min, titrated individually to stabilize phrenic activity) following neuromuscular block (pancuronium 0.5–1 mg/kg, iv) and bilateral vagotomy to better define test agent effects on phrenic nerve activity. Anesthesia was verified repeatedly following pancuronium administration by testing the BP/HR response to noxious stimuli. Spontaneous electrical activity was continuously recorded and then later rectified and averaged to calculate frequency, width, peak height of bursts, and magnitude. Magnitude of the activity was calculated by taking the absolute value of the raw signal and then averaging that signal over 50 ms increments. The resulting average signal was then converted to magnitude by subtracting the […] for each phrenic burst complex. The resulting magnitude values were then averaged over 1 minute increments to result in the graphs shown. Figure S1 in the Supplemental Information illustrates this analytical procedure.
# as §1
# [3] = Plasma exposure in phrenic nerve activity assay; assay type: in vivo; details: rat; for concentration at 15 min / concentration at 30 min / concentration at 10 min: CD, plasma, intravenous; for concentration at 15 min / concentration at 30 min: 10 mg/kg
# Description: as §1
# [4] = Plasma exposure in rat CV/R assay; assay type: in vivo; details: rat, rat, IV infusion; for concentration at 15 min / concentration at 30 min: CD, plasma, iv
# Description: as §1, with “Doses were selected to achieve unbound plasma concentrations in range of measured Nav1.6 IC50 values when infused at 0.0167uL/g body weight/min based on measured rat clearance, plasma protein binding and Nav1.6 IC50.” left out
# [5] = male, 3 mg/kg, 3 mg/kg, read-out: Total [plasma]
# [6] = male, 3 mg/kg, 3 mg/kg, read-out: Unbound [plasma]
# [7] = 30 mg/kg, 11 min, just prior to death
smiles,measurement,setting,value
O=S(=O)(Nc1ncns1)c1cc(F)c(NCC23CCCN2CCC3)cc1F [SSCI-4],∆ Heart Rate,"[1]; 3 mg/kg, 15 min",−3.5 bpm
same,∆ Mean Arterial Pressure,"[1]; 3 mg/kg, 15 min",6.4 mmHg
same,∆ QRS Interval,"[1]; 3 mg/kg, 15 min",2.4
same,∆ respiratory rate,"[1]; 3 mg/kg, 15 min",−24.7%
same,∆ Heart Rate,"[1]; 3 mg/kg, 30 min",−5.6 bpm
same,∆ Mean Arterial Pressure,"[1]; 3 mg/kg, 30 min",2.4 mmHg
same,∆ QRS Interval,"[1]; 3 mg/kg, 30 min",4.5
same,∆ respiratory rate,"[1]; 3 mg/kg, 30 min",−26.1%
same,∆ Heart Rate,"[1]; 10 mg/kg, 15 min",6.6 bpm
same,∆ Mean Arterial Pressure,"[1]; 10 mg/kg, 15 min",−5.5 mmHg
same,∆ QRS Interval,"[1]; 10 mg/kg, 15 min",7.6
same,∆ respiratory rate,"[1]; 10 mg/kg, 15 min",−17.8%
same,∆ respiratory rate,"[1]; 10 mg/kg, 25 min",−100%
same,∆ respiratory rate,"[1]; 30 mg/kg, 11 min",−100%
same,IC50,"[2]; Rattus norvegicus, relative to 3 μM d-Tubocurarine relaxation = 100%",8.9 µM
same,percent decrease in the magnitude of the phrenic nerve signal,phrenic nerve,50%
same,concentration at 15 min,[3]; read-out: Total [plasma],55.3 ± 5.5 µM
same,concentration at 15 min,[3]; read-out: Unbound [plasma],23.3 ± 2.61 µM
same,concentration at 30 min,[3]; read-out: Total [plasma],61.6 µM
same,concentration at 30 min,[3]; read-out: Unbound [plasma],29.3 µM
same,concentration at 10 min,"[3]; 30 mg/kg, read-out: Total [plasma]",91.4 µM
same,concentration at 10 min,"[3]; 30 mg/kg, read-out: Unbound [plasma]",43.5 µM
same,Total [plasma],"[3]; 30 mg/kg, 25–33 min",108.234 ± 9.606 µM
same,Unbound [plasma],"[3]; 30 mg/kg, 25–33 min",51.46 ± 4.56 µM
same,concentration at 15 min,"[4]; 10 mg/kg, 10 mg/kg, read-out: Total [plasma]",31.5 µM
same,concentration at 15 min,"[4]; 10 mg/kg, 10 mg/kg, read-out: Unbound [plasma]",15 µM
same,concentration at 15 min,[4]; [5],11.4 µM
same,concentration at 15 min,[4]; [6],5.4 µM
same,concentration at 30 min,[4]; [5],17.6 µM
same,concentration at 30 min,[4]; [6],8.4 µM
same,Total [plasma],"[4]; 10 mg/kg, 25 min, just prior to death",39.3a μM
same,Total [plasma],[4]; [7],89.7a μM
same,Unbound [plasma],[4]; [7],42.7a μM
"COc1cc2c3cc1Oc1cc(ccc1O)C[C@@H]1c4c(cc(OC)c(O)c4Oc4ccc(cc4)C[C@@H]3N(C)CC2)CC[N+]1(C)C [d-Tubocurarine, D-Tubocurarine, reference compound]","relaxation, % of the maximal relaxation of the muscle","[2]; 3 μM, termed the 100% inhibition level",60–70%
